# The source made the active and inactive calls.
# How the values were obtained:
# [1] = biological target: Peroxisome proliferator-activated receptor gamma/Nuclear receptor coactivator 2 (Homo sapiens, UniProt P37231); format: functional;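 further: agonist potency for raising coactivator recruitment to the receptor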
# [2] = biological target: Peroxisome proliferator-activated receptor gamma/Nuclear receptor coactivator 1 (Homo sapiens, UniProt P37231); format: functional;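 further: agonist potency as compounds enhance coactivator SRC-1 recruitment to PPARgamma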
# [3] = biological target: Peroxisome proliferator-activated receptor gamma/Nuclear receptor coactivator 3 (Homo sapiens, UniProt P37231); format: functional;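 further: agonist potency for raising coactivator recruitment to the receptor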
# [4] = biological target: Polyadenylate-binding protein 1 (Homo sapiens, UniProt P11940); experiment: PABP poly(A) RNA binding inhibitors, primary screen, biochemical, fluorescence polarization, uHTS (AID 2014)
# [5] = biological target: Eukaryotic translation initiation factor 4H (Homo sapiens, UniProt Q15056); experiment: human eIF4H binding inhibitors, primary screen, translation initiation inhibitor project, biochemical, uHTS, fluorescence polarization (AID 2012)
# Trypsin = Trypsin (Sus scrofa, UniProt P00761); experiment: porcine trypsin inhibitors, dose response, selectivity assay for Rce1 protease inhibitor project, biochemical, quenched peptide fluorescence, cherry-pick (AID 488789)
# CAAX prenyl protease 2 = biological target: T1, CAAX prenyl protease 2 (Saccharomyces cerevisiae S288c, UniProt Q03530); format: biochemical
# T1 sequence (Q03530 whole entry): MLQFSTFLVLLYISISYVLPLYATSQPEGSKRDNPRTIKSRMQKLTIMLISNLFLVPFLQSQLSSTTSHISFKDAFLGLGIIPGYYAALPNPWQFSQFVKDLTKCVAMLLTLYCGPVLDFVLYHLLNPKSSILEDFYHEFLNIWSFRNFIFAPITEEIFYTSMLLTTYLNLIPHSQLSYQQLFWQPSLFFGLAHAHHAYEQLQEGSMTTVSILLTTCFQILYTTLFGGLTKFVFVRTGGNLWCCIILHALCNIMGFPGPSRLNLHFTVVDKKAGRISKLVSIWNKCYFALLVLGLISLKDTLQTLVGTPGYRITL
# Estrogen receptor = biological target: T2, Estrogen receptor (Homo sapiens, UniProt P03372); experiment: ERα–SRC-3 coactivator interaction inhibitors, confirmation, orthogonal assay, biochemical, ELISA, streptavidin-HRP readout (AID 1079)
# T2 sequence (P03372 whole entry): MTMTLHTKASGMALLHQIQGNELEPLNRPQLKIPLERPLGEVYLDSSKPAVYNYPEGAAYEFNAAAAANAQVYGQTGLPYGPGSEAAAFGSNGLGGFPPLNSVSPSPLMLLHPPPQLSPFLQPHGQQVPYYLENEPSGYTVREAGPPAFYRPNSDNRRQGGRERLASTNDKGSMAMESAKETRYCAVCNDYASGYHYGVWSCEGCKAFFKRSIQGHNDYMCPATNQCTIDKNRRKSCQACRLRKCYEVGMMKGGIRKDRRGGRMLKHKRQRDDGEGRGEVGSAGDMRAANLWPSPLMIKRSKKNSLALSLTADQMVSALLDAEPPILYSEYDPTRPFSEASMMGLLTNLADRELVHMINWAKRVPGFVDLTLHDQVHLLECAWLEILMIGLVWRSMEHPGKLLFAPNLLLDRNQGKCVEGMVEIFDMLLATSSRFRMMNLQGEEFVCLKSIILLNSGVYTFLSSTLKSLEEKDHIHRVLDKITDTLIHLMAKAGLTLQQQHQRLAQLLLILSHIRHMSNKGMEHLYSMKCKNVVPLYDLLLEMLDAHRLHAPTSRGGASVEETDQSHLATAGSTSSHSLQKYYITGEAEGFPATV
# [6] = inhibitors of Bluetongue virus cytopathic effect, confirmation, arbovirus, BSR cells (AID 1250); format: functional;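 further: protection from viral cytopathic effect measured as cell viability by ATP luminescence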
# [7] = biological target: T3, Heat shock factor protein 1 (Mus musculus, UniProt P38532); experiment: inhibition of MG132-induced HSE-luciferase signal, confirmation, cell-based, NIH3T3, luminescence, dose retest (AID 2382); format: functional;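 further: NIH3T3 fibroblasts with HSF1-driven luciferase reporter stressed by proteasome inhibitor MG132; luminescence from HSF1-driven luciferase expression after 8 hours of MG132 stress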
# T3 sequence (P38532 whole entry): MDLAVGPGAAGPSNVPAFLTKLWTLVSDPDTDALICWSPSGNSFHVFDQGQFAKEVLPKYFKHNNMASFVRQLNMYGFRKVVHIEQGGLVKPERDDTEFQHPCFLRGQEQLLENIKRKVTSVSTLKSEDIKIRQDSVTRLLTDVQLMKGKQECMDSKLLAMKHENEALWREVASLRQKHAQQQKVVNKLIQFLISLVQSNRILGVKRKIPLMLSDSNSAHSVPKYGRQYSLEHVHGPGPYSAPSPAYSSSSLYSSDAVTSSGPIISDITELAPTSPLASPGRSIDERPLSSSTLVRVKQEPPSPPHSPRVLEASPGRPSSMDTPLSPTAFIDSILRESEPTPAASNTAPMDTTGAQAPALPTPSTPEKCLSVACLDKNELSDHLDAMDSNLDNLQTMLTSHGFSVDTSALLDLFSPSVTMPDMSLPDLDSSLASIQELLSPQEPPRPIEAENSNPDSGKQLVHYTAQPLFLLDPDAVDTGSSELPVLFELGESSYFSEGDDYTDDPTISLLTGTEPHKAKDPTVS
# Cytochrome P450 3A4 = Cytochrome P450 3A4 (Homo sapiens, UniProt P08684); details: Potency;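 further: confirmatory qHTS run detecting inhibitors and substrates of CYP3A4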
# Cytochrome P450 2D6 = Cytochrome P450 2D6 (Homo sapiens, UniProt P10635); experiment: qHTS Assay for Inhibitors and Substrates of Cytochrome P450 2D6. [Related pubchem assays: 410 ]; format: ADME; details: read-out: Potency
# Cytochrome P450 1A2 = biological target: T4, Cytochrome P450 1A2 (Homo sapiens, UniProt P05177);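 further: PubChem cytochrome P450 panel assay, CYP1A2 panel member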
# T4 sequence (P05177 whole entry): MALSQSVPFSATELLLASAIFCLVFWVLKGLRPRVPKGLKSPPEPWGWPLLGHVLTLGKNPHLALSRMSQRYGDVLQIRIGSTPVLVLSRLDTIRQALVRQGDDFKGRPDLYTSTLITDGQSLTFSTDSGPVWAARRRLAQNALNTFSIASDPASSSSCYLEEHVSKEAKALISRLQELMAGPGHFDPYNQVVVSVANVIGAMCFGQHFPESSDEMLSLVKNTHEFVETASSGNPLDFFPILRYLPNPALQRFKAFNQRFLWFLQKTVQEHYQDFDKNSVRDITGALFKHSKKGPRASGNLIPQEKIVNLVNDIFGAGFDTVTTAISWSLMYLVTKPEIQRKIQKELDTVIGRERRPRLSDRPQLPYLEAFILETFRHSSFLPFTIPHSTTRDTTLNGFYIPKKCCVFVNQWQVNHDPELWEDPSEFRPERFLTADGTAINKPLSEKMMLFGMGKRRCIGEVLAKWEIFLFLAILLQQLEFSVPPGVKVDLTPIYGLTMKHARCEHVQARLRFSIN
# Cytochrome P450 2C19 = Cytochrome P450 2C19 (Homo sapiens, UniProt P33261); experiment: Cytochrome panel assay with activity outcomes. Panel member name: p450-cyp2c19 Compounds with AC50 equal or less than 10 uM are considered active; format: functional; details: read-out: AC50
# INS1 = experiment: beta cell apoptosis inhibitors, cytokine rescue, dose response, luminescence, retest (AID 449756); format: functional, cell-based; details: Rattus norvegicus;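 further: cell death triggered by IL-1 beta plus TNF-alpha plus IFN-gamma mixture; protective hits raise ATP signal compared with cytokine alone wells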
# Nonstructural protein 1 = Nonstructural protein 1 (Influenza A virus, UniProt Q194T2); format: functional, Influenza A virus (A/California/07/2009(H1N1))
# [8] = biological target: T5, Mannose-6-phosphate isomerase (Homo sapiens, UniProt P34949); experiment: human PMI inhibitors, high substrate, primary screen, biochemical, fluorescence intensity, high mannose 6-phosphate (AID 1220)
# T5 sequence (P34949 whole entry): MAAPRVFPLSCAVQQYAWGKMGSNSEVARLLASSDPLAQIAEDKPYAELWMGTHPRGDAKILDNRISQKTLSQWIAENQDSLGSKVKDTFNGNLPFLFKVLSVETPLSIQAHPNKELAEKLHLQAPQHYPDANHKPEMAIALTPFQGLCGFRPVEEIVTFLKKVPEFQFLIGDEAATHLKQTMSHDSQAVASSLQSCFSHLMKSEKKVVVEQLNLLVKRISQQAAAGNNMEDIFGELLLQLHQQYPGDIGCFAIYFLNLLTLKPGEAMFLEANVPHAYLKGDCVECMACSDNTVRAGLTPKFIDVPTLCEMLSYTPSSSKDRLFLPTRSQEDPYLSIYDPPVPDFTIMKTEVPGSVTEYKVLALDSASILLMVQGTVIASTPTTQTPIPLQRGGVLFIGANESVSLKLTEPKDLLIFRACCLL
# cells [9] = format: functional, cell-based
# [10] = biological target: T6, Histone-lysine N-methyltransferase NSD2 (Homo sapiens, UniProt O96028); format: biochemical
# T6 sequence (O96028 whole entry): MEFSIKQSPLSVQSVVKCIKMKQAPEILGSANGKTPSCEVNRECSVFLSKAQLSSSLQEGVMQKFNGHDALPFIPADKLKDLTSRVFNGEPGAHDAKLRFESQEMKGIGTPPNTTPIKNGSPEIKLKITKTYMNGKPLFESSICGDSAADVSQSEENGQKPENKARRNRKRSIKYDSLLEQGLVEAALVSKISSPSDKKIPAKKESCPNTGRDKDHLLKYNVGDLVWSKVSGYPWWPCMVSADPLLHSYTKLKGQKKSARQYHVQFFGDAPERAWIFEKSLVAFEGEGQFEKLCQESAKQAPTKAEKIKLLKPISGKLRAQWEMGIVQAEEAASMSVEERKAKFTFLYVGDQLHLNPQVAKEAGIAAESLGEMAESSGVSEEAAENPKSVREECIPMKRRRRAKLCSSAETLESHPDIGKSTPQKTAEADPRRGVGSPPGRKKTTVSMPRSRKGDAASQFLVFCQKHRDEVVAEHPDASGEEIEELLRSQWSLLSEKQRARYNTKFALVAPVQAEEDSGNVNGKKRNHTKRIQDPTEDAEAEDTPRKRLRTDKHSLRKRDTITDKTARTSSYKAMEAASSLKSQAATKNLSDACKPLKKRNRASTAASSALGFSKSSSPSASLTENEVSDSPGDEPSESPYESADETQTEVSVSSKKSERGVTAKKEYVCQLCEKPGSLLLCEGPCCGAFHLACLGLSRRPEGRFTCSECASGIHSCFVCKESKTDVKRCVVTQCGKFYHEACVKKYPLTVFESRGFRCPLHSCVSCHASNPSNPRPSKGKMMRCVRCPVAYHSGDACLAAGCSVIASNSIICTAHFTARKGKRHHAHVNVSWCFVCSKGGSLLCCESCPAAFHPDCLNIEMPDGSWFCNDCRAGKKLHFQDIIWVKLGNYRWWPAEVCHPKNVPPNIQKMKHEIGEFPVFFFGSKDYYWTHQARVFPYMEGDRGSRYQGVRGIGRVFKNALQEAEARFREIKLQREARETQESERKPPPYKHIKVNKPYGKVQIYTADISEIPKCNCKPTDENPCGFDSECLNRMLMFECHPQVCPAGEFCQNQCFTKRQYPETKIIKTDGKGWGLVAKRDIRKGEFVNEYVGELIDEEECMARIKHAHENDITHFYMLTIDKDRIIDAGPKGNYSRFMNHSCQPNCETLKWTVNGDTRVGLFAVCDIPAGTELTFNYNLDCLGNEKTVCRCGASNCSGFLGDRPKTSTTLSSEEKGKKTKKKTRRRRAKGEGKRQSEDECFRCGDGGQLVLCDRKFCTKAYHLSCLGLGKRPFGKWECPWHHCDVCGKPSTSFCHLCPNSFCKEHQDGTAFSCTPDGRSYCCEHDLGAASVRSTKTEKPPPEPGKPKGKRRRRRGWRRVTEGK
# cells [11] = format: functional, cell-based; remark: listed apart in the source
# Large T antigen = Large T antigen (Simian virus 40, UniProt P03070); format: functional, Betapolyomavirus macacae;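 further: Confirmatory-stage PubChem screen for compounds that inhibit SV40 T antigen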
# [12] = enhancers of respiration in Yfh1-depleted yeast, dose response, Friedreich's ataxia, plus single-dose screen (AID 1465); format: functional;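 further: yeast depleted of Yfh1p frataxin homolog grown on glycerol needing respiration; WST-1 tetrazolium dye reduction as measure of cellular dehydrogenase metabolic activity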
# Chain of Trypsin (P00761 whole entry): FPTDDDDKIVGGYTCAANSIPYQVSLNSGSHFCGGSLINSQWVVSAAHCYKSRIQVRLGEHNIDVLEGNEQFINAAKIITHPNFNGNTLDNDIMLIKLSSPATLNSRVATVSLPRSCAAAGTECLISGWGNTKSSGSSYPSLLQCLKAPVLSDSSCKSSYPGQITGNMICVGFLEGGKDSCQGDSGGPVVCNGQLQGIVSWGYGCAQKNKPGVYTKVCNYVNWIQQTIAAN
# Chain of Peroxisome proliferator-activated receptor gamma/Nuclear receptor coactivator 2 (P37231 whole entry): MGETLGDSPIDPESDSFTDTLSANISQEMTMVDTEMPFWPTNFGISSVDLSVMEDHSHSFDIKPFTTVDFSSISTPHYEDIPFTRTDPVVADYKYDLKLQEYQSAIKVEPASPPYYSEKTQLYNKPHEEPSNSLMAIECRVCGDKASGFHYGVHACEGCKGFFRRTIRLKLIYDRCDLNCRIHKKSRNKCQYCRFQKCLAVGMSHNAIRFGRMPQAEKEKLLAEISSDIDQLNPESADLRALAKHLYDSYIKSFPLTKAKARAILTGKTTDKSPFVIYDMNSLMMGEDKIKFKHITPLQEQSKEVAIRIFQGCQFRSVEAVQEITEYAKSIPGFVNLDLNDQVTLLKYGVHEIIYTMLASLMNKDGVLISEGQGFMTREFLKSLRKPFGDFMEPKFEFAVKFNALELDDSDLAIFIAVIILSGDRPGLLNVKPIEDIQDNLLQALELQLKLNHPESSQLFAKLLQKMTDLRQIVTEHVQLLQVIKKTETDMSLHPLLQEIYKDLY
# Chain of Peroxisome proliferator-activated receptor gamma/Nuclear receptor coactivator 2 (Q15596 whole entry, further chain): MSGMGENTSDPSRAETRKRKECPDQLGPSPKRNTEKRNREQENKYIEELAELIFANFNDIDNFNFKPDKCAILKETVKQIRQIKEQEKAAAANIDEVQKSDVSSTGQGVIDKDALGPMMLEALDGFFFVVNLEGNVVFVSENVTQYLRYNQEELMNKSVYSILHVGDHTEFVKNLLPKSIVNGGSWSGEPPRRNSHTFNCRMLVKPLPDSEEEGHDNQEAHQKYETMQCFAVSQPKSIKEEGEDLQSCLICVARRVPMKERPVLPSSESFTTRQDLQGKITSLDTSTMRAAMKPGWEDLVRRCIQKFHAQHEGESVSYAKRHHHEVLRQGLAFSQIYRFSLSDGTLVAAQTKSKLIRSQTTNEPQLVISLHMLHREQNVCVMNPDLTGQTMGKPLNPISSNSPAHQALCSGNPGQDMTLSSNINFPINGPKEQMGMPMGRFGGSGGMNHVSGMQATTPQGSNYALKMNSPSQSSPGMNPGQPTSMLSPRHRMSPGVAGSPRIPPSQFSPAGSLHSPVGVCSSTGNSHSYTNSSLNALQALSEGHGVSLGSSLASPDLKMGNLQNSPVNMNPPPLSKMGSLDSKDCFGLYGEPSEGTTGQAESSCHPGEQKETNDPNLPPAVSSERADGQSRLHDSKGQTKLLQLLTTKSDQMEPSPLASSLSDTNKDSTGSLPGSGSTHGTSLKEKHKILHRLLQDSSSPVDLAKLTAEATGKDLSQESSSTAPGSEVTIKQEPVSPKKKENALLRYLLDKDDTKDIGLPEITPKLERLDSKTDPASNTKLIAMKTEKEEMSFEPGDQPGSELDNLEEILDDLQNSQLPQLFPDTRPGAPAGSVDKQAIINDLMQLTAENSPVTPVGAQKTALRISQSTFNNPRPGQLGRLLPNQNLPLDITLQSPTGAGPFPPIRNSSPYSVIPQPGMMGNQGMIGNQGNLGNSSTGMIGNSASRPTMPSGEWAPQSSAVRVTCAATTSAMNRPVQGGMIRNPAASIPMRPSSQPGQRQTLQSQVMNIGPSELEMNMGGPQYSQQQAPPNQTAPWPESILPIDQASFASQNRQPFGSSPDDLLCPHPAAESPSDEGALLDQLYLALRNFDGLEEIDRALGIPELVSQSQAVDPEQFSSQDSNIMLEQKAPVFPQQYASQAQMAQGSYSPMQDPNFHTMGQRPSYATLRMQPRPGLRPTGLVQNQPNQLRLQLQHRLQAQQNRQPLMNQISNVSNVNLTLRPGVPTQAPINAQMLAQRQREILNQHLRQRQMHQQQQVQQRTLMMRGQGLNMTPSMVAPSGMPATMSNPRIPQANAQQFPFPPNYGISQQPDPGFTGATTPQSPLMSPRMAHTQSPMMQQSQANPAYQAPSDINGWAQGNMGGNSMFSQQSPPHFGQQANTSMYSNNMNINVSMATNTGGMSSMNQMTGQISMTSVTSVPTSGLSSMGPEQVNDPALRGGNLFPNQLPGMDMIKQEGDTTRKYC
# Chain of Peroxisome proliferator-activated receptor gamma/Nuclear receptor coactivator 1 (P37231 whole entry): as the sequence (P37231 whole entry) above
# Chain of Peroxisome proliferator-activated receptor gamma/Nuclear receptor coactivator 1 (Q15788 whole entry, further chain): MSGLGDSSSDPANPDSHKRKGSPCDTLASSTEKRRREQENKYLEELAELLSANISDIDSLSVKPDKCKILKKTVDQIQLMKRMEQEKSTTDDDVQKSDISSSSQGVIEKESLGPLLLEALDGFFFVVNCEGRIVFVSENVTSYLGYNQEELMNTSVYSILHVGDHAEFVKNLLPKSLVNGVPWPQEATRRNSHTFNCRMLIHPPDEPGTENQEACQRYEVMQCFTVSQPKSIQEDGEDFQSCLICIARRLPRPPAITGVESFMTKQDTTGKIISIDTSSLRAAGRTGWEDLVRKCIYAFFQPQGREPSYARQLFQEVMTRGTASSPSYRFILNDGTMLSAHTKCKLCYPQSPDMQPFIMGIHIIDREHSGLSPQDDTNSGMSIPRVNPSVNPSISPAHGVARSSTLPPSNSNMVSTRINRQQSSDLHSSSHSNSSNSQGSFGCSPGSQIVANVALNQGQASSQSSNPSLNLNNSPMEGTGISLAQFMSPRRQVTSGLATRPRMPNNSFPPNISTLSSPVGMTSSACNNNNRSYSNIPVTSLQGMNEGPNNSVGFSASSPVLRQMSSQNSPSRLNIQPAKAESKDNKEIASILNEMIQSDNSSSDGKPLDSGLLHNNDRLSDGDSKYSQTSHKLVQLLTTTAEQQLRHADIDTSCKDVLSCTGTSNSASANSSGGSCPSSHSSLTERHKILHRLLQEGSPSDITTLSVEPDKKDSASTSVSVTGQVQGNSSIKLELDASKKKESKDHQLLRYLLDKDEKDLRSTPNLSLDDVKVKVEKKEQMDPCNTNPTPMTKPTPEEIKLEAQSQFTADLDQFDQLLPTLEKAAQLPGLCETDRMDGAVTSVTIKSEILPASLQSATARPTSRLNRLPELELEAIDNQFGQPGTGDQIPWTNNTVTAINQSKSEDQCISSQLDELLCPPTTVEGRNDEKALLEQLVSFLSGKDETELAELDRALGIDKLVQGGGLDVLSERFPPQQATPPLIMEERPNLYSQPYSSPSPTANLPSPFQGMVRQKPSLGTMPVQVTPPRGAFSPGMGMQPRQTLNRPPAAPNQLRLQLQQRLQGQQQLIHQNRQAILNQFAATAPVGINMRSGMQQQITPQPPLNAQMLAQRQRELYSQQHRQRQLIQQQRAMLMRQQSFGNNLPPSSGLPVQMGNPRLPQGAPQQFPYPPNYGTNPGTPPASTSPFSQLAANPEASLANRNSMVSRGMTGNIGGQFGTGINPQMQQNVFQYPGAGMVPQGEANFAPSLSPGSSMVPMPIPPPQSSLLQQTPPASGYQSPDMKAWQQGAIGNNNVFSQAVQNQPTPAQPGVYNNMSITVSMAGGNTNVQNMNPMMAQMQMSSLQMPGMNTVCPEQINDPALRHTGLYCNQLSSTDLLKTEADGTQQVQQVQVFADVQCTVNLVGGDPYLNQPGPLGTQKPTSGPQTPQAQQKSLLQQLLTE
# Chain of Cytochrome P450 3A4 (P08684 whole entry): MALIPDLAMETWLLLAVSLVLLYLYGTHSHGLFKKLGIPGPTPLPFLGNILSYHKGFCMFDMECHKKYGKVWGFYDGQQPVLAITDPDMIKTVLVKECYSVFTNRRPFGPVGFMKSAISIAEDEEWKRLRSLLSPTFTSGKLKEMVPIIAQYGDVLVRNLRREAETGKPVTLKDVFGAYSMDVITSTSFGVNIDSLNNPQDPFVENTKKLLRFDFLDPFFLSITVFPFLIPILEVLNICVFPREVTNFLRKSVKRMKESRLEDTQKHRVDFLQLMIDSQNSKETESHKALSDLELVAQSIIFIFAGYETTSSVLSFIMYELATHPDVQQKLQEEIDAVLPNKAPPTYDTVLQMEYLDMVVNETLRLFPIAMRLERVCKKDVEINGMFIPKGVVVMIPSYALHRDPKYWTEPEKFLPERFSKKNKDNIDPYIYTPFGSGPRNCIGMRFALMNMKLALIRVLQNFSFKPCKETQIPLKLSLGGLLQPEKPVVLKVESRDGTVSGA
compound,measurement,setting,value
CCCNC(=O)C(CC)NS(=O)(=O)c1ccc(OC)cc1 (configuration not stated),EC50,[1],> 79.4 µM (not active)
same,EC50,[2],> 79.4 µM (not active)
same,EC50,[3],> 79.4 µM (not active)
CCC(c1nnc(SCCNCCO)n1CCN1CCOCC1)N(C)C (configuration not stated),IC50,[4],7.33 µM (active)
same,IC50,[5],> 100 µM (inactive)
Nc1ccc2c(C(F)(F)F)cc(C(F)(F)F)nc2n1,AC50,Trypsin,10.7 µM (active)
same,AC50,CAAX prenyl protease 2,> 100 µM (inactive)
O=C(CCCCCn1c(=S)[nH]c2ccccc2c1=O)N1CCC(O)(c2ccc(Cl)cc2)CC1,IC50,Estrogen receptor,0.08 µM (not active)
Cc1ccc2nc(NC(=O)C3=NN(c4ccccc4)C(=O)CC3)sc2c1,IC50,[6],29 µM (active)
c1ccc(-c2ccc(-c3cn4c(n3)CCC4)cc2)cc1,AC50,Trypsin,2.37 µM (active)
same,AC50,CAAX prenyl protease 2,4.15 µM (active)
O=C(CCCn1c(=S)[nH]c2ccccc2c1=O)N1CCN(c2cccc3ccccc23)CC1,IC50,Estrogen receptor,0.07 µM (not active)
CC(C)Oc1ccc(OCCSc2nc3ccccc3n2CC(=O)O)cc1,IC50,[4],11.5 µM (active)
same,EC50,[7],> 195 µM (not active)
same,IC50,[5],> 100 µM (inactive)
CCCCCCC1=Cc2cc(OC)c(OC)cc2C(C(C(C)=O)C(=O)OCC)O1 (configuration not stated),AC50,Cytochrome P450 3A4,3.16 µM (inconclusive)
same,AC50,Cytochrome P450 2D6,6.31 µM (inconclusive)
CCOC(=O)CC(=O)CSc1nc(-c2ccccc2)cc(-c2ccc(Cl)cc2)c1C#N,EC50,[1],14.8 µM (not active)
same,EC50,[2],16.4 µM (not active)
same,AC50,Cytochrome P450 1A2,2.24 µM (inconclusive)
same,AC50,Cytochrome P450 2C19,7.08 µM (inconclusive)
same,EC50,[3],18.7 µM (not active)
Oc1cccc(/C=N/NC(=S)Nc2cccnc2)c1O,AC50,INS1,0.976 µM (active)
same,IC50,Nonstructural protein 1,1.83 µM (active)
same,IC50,[8],16.1 µM (active)
same,EC50,cells [9],13.6 µM (active)
same,AC50,[10],12.4 µM (active)
same,EC50,cells [11],83 µM (active)
same,IC50,Large T antigen,15 µM (active)
same,EC50,[12],> 100 µM (active)
O=c1c(O)c(-c2ccc(O)cc2)oc2cc(O)ccc12 [RESOKAEMPFEROL],AC50,Cytochrome P450 3A4,39.8 µM (inconclusive)
same,AC50,Cytochrome P450 2D6,20 µM (inconclusive)

# — ChEMBL document CHEMBL1201862, “PubChem BioAssay data set” (2004)
